We go through one compound from US20240051944A1, “CRYSTALLINE FORM II OF MELANOCORTIN RECEPTOR AGONIST COMPOUND AND PREPARATION METHOD THEREFOR” (LG CHEM, LTD., priority 2020, published 2024).

Entries after “also recorded” stand apart in the source; their conditions may differ.

Common to all, as to format: physicochemical
Series [1] is described as follows: Thermogravimetric analysis (TGA). Conditions: heated 30° C. to 350° C. at 10° C./min. On the procedure: The TGA was measured using Mettler Toledo TGA/DSC 1 module. About 4-8 mg of the sample is weighed and put into a 100 μL Al crucible (flat-bottomed aluminum crucibles). Then, TGA measurement is performed while the sample is heated from 30° C. to 350° C. at a rate of 10° C./min. During the measurement, nitrogen gas is supplied to the inside of the instrument at a rate of 80 mL/min to prevent the inflow of oxygen and other gases. Data collection and evaluation were performed using the software STARe.

Series [2] in a line: Dynamic vapor sorption (DVS) analysis. How it is done: DVS was measured using automated gravimetric vapor sorption analyzer equipped with Cahn D200 ultra-microbalance (DVS Intrinsic apparatus, Surface Measurement System Ltd., UK). First, a sample of 10-20 mg was put in a sample pan and hung on a hang-down wire, and measurement was started when the weight and humidity reached equilibrium. In one cycle, relative humidity was increased from 0% to 90% and then dropped back to 0%. Two cycles were carried out. The experiment was carried out in a way that the relative humidity was increased at 10% increment using a dm/dt method. The experiment was carried out at room temperature (25° C.)

Series [3] can be described thus: Stability assessment (HPLC) under accelerated and harsh storage conditions. Conditions: for Stability assessment, HPLC content: in % (unit assumed). How it is done: About 10-30 mg of the sample was stored for 4 weeks in an open state under the accelerated condition (40° C., 75% RH) or in a sealed state under the harsh condition in an oven at 80° C. [table]

Regarding `CC(C)C(=O)N([C@H]1C[C@@H](C(=O)N2CCOCC2)N(C(=O)[C@@H]2CN(C(C)(C)C)C[C@H]2c2ccc(Cl)cc2)C1)[C@H]1CC[C@@H](C)CC1` [Example 1, N-((3S,5S)-1-((3S,4R)-1-(tert-butyl)-4-(4-chlorophenyl)pyrrolidine-3-carbonyl)-5-(morpholine-4-carbonyl)pyrrolidin-3-yl)-N-((1s,4R)-4-methylcyclohexyl)isobutyramide], the “weight loss before degradation (TGA)” value in series [1] is “no weight loss was observed”. Further, the “temperature up to which thermally stable (TGA)” value in series [1] (error ±5° C.) is “up to 270 °C”. Besides, the “physical change after DVS (XRPD pattern vs initial)” value in series [2] (XRPD after DVS analysis) is reported as “no physical change occurred”. Moreover, the “total weight gain (DVS)” value in series [2] (between 0-90% RH, 25° C.) was 1.25 % w/w. Further, the “Stability assessment, HPLC content” value in series [3] (Accelerated condition (40° C./75% RH), open state, Day 3) is on record as 96.35; in series [3] (Accelerated condition (40° C./75% RH), open state, Week 1), 96.02; in series [3] (Accelerated condition (40° C./75% RH), open state, Week 2) it was 96.08; in series [3] (Accelerated condition (40° C./75% RH), open state, Week 4) it was 95.69; in series [3] (Harsh condition (80° C.), sealed state, Day 3), 96.54; in series [3] (Harsh condition (80° C.), sealed state, Week 1), 95.74. The “Stability assessment, HPLC content” value in series [3] (Harsh condition (80° C.), sealed state, Week 2) stood at 94.82; in series [3] (Harsh condition (80° C.), sealed state, Week 4), 93.42; in series [3] (Initial), 96.01. In addition, in series [3] (accelerated condition (40° C., 75% RH), 4 weeks, listed as crystalline form II), the “chemical stability (HPLC), result in words” value is recorded as “showed chemical stability for 4 weeks; also recorded: exhibited chemical stability for 4 weeks”. Moreover, in series [3] (harsh condition (closed state, 80° C.), 4 weeks), the “decrease in the content” value is “about 2.6%”.
